The values below come from patent US20240310365A1, “DEVICE FOR EVALUATING INNER EAR DRUG DELIVERY” (North Carolina State University, priority 2023, published 2024).

The subject of data set [1] is porcine RWM. Description: Ex-vivo porcine RWM device permeability measurement. It is filed as in vitro ADME. As to conditions: Dex ~400 μg/ml.
For data set [2] the following is noted: humans; after intratympanic DSP 0.4-1.8 ml of 4 mg/ml; cited from earlier work.

Bounds are passed on as bounds.

For the compound `C[C@@H]1C[C@H]2[C@@H]3CCC4=CC(=O)C=C[C@]4(C)[C@@]3(F)[C@@H](O)C[C@]2(C)[C@@]1(O)C(=O)CO` [Dex, dexamethasone], the “time for passage through the porcine RWM” value in data set [1] is less than 0.5 h. In addition, the “dexamethasone concentration in perilymph” value in data set [2] is reported as “about 1.4 μg/”.
